By Km is commonly meant the concentration of substrate that gives half-maximal velocity.

One data set has as its target T1, Porcine leukocyte LOX (Sus scrofa, UniProt P16469).
T1 construct: purchased Cayman Chemical Co. (Ann Arbor, Mich., USA)
T1 sequence (P16469 1-663): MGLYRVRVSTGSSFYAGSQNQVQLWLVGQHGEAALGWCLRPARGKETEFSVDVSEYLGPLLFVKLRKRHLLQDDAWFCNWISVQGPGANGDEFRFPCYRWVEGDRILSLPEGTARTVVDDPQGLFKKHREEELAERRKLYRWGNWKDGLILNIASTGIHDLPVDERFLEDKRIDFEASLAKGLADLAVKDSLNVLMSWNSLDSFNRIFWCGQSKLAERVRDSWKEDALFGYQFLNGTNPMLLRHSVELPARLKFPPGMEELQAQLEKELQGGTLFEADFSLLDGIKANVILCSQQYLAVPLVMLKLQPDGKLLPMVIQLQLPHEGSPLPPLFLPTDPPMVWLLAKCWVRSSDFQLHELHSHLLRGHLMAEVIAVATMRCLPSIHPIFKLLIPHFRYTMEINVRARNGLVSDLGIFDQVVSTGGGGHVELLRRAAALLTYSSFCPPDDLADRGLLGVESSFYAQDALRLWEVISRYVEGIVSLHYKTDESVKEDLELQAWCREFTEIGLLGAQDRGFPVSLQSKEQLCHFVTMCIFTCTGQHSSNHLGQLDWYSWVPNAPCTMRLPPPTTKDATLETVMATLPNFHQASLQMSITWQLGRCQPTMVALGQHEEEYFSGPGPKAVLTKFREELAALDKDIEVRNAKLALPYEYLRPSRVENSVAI
Description: Kinetics of oxygenation of linoleoylated substrates by leukocyte LOX. The conditions noted are these: porcine leukocyte LOX 1.5 units/ml, 100 mM phosphate buffer pH 7.5, 5 mM EDTA. The format is biochemical. An excerpt: (§1) Data were expressed as means ±S.D. of results from at least three independent experiments.

The next data set has as its target T2, Reticulocyte LOX (Oryctolagus cuniculus, UniProt P12530).
T2 construct: purchased Biomol Inc. (Plymouth Meeting, Pa., USA)
T2 sequence (P12530 1-663): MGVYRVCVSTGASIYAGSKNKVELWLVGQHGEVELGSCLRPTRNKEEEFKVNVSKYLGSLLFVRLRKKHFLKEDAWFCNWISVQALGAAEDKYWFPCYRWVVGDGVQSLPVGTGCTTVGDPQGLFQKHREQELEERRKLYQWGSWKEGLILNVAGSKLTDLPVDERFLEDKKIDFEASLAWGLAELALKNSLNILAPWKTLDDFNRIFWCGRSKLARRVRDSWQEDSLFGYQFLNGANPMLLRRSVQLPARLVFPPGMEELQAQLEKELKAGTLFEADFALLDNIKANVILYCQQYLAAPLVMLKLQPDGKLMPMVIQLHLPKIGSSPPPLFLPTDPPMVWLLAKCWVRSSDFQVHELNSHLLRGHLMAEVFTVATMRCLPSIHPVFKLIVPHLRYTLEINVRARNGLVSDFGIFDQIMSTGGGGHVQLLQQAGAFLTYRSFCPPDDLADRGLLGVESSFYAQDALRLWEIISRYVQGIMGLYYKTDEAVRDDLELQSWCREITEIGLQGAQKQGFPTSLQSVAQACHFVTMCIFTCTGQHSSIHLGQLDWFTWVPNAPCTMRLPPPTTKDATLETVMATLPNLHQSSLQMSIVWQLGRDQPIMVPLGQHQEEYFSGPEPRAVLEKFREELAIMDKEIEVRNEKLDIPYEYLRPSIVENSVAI
In words: Kinetics of oxygenation of linoleoylated substrates by reticulocyte LOX. The conditions noted are these: reticulocyte LOX 8.2 units/ml, 50 mM phosphate buffer pH 7.4, 25° C.; for Km: substrate 3-100 μM. It counts as biochemical, Rabbit.
Text: as §1

The target of data set [1] is T3, soybean LOX-1 (Glycine max, UniProt P08170).
T3 construct: purchased Sigma-Aldrich Corp (St. Louis, Mo., USA) lipoxidase Type I-B
T3 sequence (P08170 1-839): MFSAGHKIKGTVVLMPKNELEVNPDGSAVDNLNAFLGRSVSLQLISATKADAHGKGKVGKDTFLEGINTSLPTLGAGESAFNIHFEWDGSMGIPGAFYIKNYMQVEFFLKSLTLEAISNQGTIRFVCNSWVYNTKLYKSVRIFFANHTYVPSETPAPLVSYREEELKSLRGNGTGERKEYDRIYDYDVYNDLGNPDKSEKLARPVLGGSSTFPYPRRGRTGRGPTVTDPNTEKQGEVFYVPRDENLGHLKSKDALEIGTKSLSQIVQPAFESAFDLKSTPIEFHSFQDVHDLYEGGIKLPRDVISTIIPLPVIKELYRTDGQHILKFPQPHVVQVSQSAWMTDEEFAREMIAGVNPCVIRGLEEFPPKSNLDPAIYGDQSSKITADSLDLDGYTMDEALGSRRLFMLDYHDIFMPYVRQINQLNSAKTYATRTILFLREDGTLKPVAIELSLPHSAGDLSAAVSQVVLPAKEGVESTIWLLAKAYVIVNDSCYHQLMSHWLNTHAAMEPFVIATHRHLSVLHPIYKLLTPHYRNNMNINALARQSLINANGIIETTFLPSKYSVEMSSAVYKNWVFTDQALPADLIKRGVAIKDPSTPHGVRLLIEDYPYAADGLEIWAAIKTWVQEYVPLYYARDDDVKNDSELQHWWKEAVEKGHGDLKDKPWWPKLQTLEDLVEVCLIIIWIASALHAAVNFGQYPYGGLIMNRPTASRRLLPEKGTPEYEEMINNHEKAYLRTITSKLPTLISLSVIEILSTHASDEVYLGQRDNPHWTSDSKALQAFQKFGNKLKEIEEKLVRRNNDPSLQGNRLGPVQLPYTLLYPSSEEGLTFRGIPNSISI
Description: Kinetics of oxygenation of docosahexaenoic acid derivatives by soybean LOX-1. It counts as biochemical. The conditions noted are these: soybean LOX-1 2.5 units/ml, 50 mM borax buffer pH 9.0, 25° C. As to the method:
Soybean LOX-1 (2.5 units/ml) was incubated with docosahexaenoyl-lysoPC, didocosahexaenoyl-lysoPC or docosahexaenoic acid of various concentrations in 500 μl of 50 mM borax buffer (pH 9.0) at 25° C. Values were expressed as means ±S.D. of results from at least three independent experiments.

Data set [2] addresses T3, soybean LOX-1. In words: Kinetics of oxygenation of arachidonic acid or arachidonoyl-lysophospholipids by soybean LOX-1. The format is biochemical. The following applies: soybean LOX-1 2.5 units/ml, 50 mM borax buffer pH 9.0; unit = one nanomole conjugated diene per min. How it is done:
(§2) Activities of various LOXs were monitored by measuring the increase in absorbance at 234 nm due to the formation of hydroperoxide (ε234=25,000 M^−1 cm^−1) at 25° C. as described before (Smith et al, J. Biol. Chem. 247 (1972) 1038-1047). One unit is defined as the amount of LOXs that can produce one nanomole of conjugated diene per min. The reaction mixture (500 μl) included reticulocyte LOX (2 units/ml) in 50 mM phosphate buffer (pH 7.4), porcine leukocyte LOX (1 unit/ml) in 100 mM phosphate buffer (pH 7.5) containing 5 mM EDTA and 0.03% Tween 20, or soybean LOX-1 (2.5 units/ml) in 50 mM borax buffer (pH 9.0) at 25° C. The reactions were started by including each substrate (100 μM) into the above reaction mixture.
(§3) Reticulocyte LOX (2 units/ml), leukocyte LOX (1 units/ml) or soybean LOX-1 (2.5 units/ml) was incubated with each arachidonoyl derivative substrate of various concentrations as described above. The values of kinetic parameters were obtained according to Lineweaver Burke plot analyses as described before (Barroso et al, J. Chromatogr. B. Analyt. Technol. Biomed. Life. Sci. 814 (2005) 21-28).

For data set [3], the target named is T4, Leukocyte 12-lipoxygenase (leukocyte LOX) (Sus scrofa, UniProt P16469).
T4 construct: purchased Cayman Chemical Co. (Ann Arbor, Mich., USA)
T4 sequence (P16469 1-663): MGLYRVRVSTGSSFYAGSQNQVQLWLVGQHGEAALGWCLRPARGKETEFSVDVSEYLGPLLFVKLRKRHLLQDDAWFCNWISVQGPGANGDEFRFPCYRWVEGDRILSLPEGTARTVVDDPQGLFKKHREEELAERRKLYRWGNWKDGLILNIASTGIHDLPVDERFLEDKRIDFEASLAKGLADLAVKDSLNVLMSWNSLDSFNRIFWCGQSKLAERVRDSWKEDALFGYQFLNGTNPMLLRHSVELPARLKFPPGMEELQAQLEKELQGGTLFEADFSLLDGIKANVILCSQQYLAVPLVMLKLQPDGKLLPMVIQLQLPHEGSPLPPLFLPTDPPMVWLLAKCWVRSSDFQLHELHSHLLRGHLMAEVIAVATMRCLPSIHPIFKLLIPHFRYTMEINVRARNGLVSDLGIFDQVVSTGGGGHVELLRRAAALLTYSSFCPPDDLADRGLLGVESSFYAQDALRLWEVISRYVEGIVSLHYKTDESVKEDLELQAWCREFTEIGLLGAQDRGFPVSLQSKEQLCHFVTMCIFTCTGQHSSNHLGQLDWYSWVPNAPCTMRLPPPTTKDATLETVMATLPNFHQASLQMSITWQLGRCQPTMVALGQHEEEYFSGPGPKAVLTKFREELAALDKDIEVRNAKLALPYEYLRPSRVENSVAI
Description: Kinetics of oxygenation of arachidonic acid or arachidonoyl-lysophospholipids by leukocyte LOX. It counts as biochemical, porcine. The following applies: leukocyte LOX 1 unit/ml, 100 mM phosphate buffer pH 7.5, 5 mM EDTA, 0.03% Tween 20. How it is done: as §2, §3

Substrate in data set [4]: CCCCC/C=C\C/C=C\C/C=C\C/C=C\CCCC(=O)O
The data set is described as above. It counts as biochemical, porcine. The following applies: other: leukocyte LOX 1 unit/ml, 100 mM phosphate buffer pH 7.5, 5 mM EDTA, 0.03% Tween 20, 25° C. As to the method:
as §2, §3

Substrate in data set [5]: CC/C=C\C/C=C\C/C=C\C/C=C\C/C=C\C/C=C\CCC(=O)O
Description: Kinetics of oxygenation of docosahexaenoyl-lysoPC or docosahexaenoic acid by leukocyte LOX. The following applies: other: porcine leukocyte LOX 2 units/ml, 100 mM phosphate buffer pH 7.4, 5 mM EDTA, 0.03% Tween 20, 25° C. The format is biochemical. As to the method: Porcine leukocyte LOX (2 units/ml) was incubated with each substrate docosahexaenoyl-lysoPC or docosahexaenoic acid of various concentrations in 500 μl of 100 mM phosphate buffer (pH 7.4) containing 5 mM EDTA and 0.03% Tween 20 at 25° C.

For the molecule `CCCCC/C=C\C/C=C\CCCCCCCC(=O)OCC(O)COP(=O)(O)O` (stereo not shown) [Linoleoyl-lysoPA], the Vm worked out at 30.7 ± 0.78 units/mg at Porcine leukocyte LOX (0.03% Tween 20) and 443 ± 9 units/mg on Reticulocyte LOX. For the same molecule, the Michaelis constant (Km) at Porcine leukocyte LOX (substrate 3-100 μM, 0.03% Tween 20, 25° C.) worked out at 35.5 ± 3.77 µM; on Reticulocyte LOX, 8.3 ± 0.6 µM.

As for “didocosahexaenenoyl phosphatidylcholine [Didocosahexaenoyl-PC]”, at soybean LOX-1 [1], the Michaelis constant (Km) turned out to be 1070 ± 184 µM and the Vm was 7.8 ± 0.3 units/μg.

For `CCCCC/C=C\C/C=C\C/C=C\C/C=C\CCCC(=O)O` [Arachidonic acid, arachidonic acid], the Vm came to 92.2 units/μg on soybean LOX-1 [2] and 63.2 units/mg in data set [3].

As to `CCCCC/C=C\C/C=C\CCCCCCCC(=O)OC[C@H](COP(=O)(O)O)OC(=O)CCCCCCC/C=C\C/C=C\CCCCC` [Dilinoleoyl-PA], at Reticulocyte LOX, the Vm is 1029 ± 22 units/mg and the Km turned out to be 90 ± 7.3 µM.

B1: Leukocyte 12-lipoxygenase (leukocyte LOX) (Sus scrofa) (protein)
chain: MGLYRVRVSTGSSFYAGSQNQVQLWLVGQHGEAALGWCLRPARGKETEFSVDVSEYLGPLLFVKLRKRHLLQDDAWFCNWISVQGPGANGDEFRFPCYRWVEGDRILSLPEGTARTVVDDPQGLFKKHREEELAERRKLYRWGNWKDGLILNIASTGIHDLPVDERFLEDKRIDFEASLAKGLADLAVKDSLNVLMSWNSLDSFNRIFWCGQSKLAERVRDSWKEDALFGYQFLNGTNPMLLRHSVELPARLKFPPGMEELQAQLEKELQGGTLFEADFSLLDGIKANVILCSQQYLAVPLVMLKLQPDGKLLPMVIQLQLPHEGSPLPPLFLPTDPPMVWLLAKCWVRSSDFQLHELHSHLLRGHLMAEVIAVATMRCLPSIHPIFKLLIPHFRYTMEINVRARNGLVSDLGIFDQVVSTGGGGHVELLRRAAALLTYSSFCPPDDLADRGLLGVESSFYAQDALRLWEVISRYVEGIVSLHYKTDESVKEDLELQAWCREFTEIGLLGAQDRGFPVSLQSKEQLCHFVTMCIFTCTGQHSSNHLGQLDWYSWVPNAPCTMRLPPPTTKDATLETVMATLPNFHQASLQMSITWQLGRCQPTMVALGQHEEEYFSGPGPKAVLTKFREELAALDKDIEVRNAKLALPYEYLRPSRVENSVAI
notes: purchased Cayman Chemical Co. (Ann Arbor, Mich., USA)
As to B1, in data set [4], the Michaelis-Menten constant (Km) amounted to 7.7 µM, the Vmax is 63.2 ± 11.9 units/mg and the Vmax/Km was 8.2 ± 1.5 units/mg/μM.

B2: Porcine leukocyte LOX (Sus scrofa) (protein)
chain: MGLYRVRVSTGSSFYAGSQNQVQLWLVGQHGEAALGWCLRPARGKETEFSVDVSEYLGPLLFVKLRKRHLLQDDAWFCNWISVQGPGANGDEFRFPCYRWVEGDRILSLPEGTARTVVDDPQGLFKKHREEELAERRKLYRWGNWKDGLILNIASTGIHDLPVDERFLEDKRIDFEASLAKGLADLAVKDSLNVLMSWNSLDSFNRIFWCGQSKLAERVRDSWKEDALFGYQFLNGTNPMLLRHSVELPARLKFPPGMEELQAQLEKELQGGTLFEADFSLLDGIKANVILCSQQYLAVPLVMLKLQPDGKLLPMVIQLQLPHEGSPLPPLFLPTDPPMVWLLAKCWVRSSDFQLHELHSHLLRGHLMAEVIAVATMRCLPSIHPIFKLLIPHFRYTMEINVRARNGLVSDLGIFDQVVSTGGGGHVELLRRAAALLTYSSFCPPDDLADRGLLGVESSFYAQDALRLWEVISRYVEGIVSLHYKTDESVKEDLELQAWCREFTEIGLLGAQDRGFPVSLQSKEQLCHFVTMCIFTCTGQHSSNHLGQLDWYSWVPNAPCTMRLPPPTTKDATLETVMATLPNFHQASLQMSITWQLGRCQPTMVALGQHEEEYFSGPGPKAVLTKFREELAALDKDIEVRNAKLALPYEYLRPSRVENSVAI
notes: as for B1
Consider B2, for which, in data set [5], the Km came to 17.6 ± 1.7 µM, the Vmax was found to be 35.9 µmol/min/mg and the Vmax/Km worked out at 2.1e+06 µL/min/mg.

The values above are taken from patent publication US20070264679A1, “Method for analyzing the activity of lipoxygenase using a water-soluble substrate” (Chungnam National University Industry Collaboration …, priority 2006, published 2007).
